Measured values taken from patent US20130274233A1, “MODULATORS OF HEDGEHOG SIGNALING PATHWAY” (priority 2012, published 2013).

Experiments:
Format in all cases: cell-based
Smo::EGFP [1] = target: T1, Smo::EGFP (Homo sapiens, UniProt Q99835); experiment: High content assay of Shh-induced Smo::EGFP accumulation in the primary cilium (Smo::EGFP/Ivs::tagRFPT NIH/3T3 cells); details: 3T3/Smo::GFP/Ivs::tagRFPT cells; stimulus Shh; read-out: IC50, inhibition of Shh-induced Smo::GFP ciliary accumulaton
T1 construct: expressed in transfected cells
T1 sequence (Q99835 28-787): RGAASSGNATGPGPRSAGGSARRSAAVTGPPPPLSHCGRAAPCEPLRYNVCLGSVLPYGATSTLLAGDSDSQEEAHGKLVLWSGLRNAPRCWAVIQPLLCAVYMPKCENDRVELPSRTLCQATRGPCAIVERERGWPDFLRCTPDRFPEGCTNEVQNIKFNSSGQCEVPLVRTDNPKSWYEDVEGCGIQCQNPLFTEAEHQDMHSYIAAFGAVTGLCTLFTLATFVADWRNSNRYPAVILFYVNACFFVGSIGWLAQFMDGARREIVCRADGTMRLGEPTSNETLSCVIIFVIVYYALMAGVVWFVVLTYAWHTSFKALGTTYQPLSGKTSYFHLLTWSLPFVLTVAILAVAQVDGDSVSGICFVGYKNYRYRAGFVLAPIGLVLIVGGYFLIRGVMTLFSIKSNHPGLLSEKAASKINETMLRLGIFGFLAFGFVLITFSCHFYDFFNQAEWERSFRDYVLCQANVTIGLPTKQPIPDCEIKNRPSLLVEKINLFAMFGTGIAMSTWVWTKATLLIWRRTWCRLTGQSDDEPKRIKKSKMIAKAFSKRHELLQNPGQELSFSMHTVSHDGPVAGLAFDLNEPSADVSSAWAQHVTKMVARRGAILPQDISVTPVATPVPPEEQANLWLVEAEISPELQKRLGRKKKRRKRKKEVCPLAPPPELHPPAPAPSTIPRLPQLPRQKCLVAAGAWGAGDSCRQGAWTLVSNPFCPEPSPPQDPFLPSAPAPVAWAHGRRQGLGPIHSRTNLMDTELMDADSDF
Text: NIH/3T3 cells were maintained in DMEM containing 10% (v/v) calf serum, penicillin, streptomycin, and L-glutamine. HEK293, L, cos 7, and suFU−/− mouse embryonic fibroblast cells were maintained in DMEM containing 10% (v/v) fetal bovine serum, penicillin, streptomycin, and L-glutamine. Smo::EGFP, SmoM2::GFP, and Ivs::tagRFPT were cloned into pBabe to generate retroviral particles for infection. Smo::EGFP/Ivs::tagRFPT and SmoM2::GFP/Ivs::tagRFPT stable cell lines were generated through viral infection of NIH/3T3^12. A ShhLightII Gli reporter cell line was obtained from the American Type Culture Collection (ATCC) and used in luciferase reporter assays to measure Hh pathway activity. The cell line contains a stably integrated Gli-responsive Firefly luciferase reporter and a constitutive Renilla luciferase expression construct^33. Subclones expressing Smo or SmoM2 in ShhLightII cells were used for chemical epistasis analyses.
(§1) Cells were cultured and treated in 384-well imaging plate precoated with poly-D-Lysine (Greiner Bio-one), fixed with 4% paraformaldehyde (Electron Microscopy Sciences), and stained with Hoechst (Invitrogen). Images were collected using Opera High Content Screening System (Perkin Elmer). Activityl)ase (IDBS Inc, Emeryvill, Calif.) and Pipeline Pilot (Accelrys, Inc. San Diego, Calif.) were used for high content screening data management and analysis. Acapella 2.0 software (Evotec Technologies/PerkinElmer) was used to perform multi-parametrical high content image quantification. All the images for comparison were scanned with identical microscopic settings and analyzed with the same input parameters.
(§2) Acapella 2.0 software (Evotec Technologies/PerkinElmer) was used to perform multi-parametric high content image quantification. Our image analysis script used Ivs::tagREPT to first determine the location of the PC and then Smo::EGFP to quantify the level of Smo present in the cilium.
(§3) The inventors used the spot-finding algorithm in the RFP channel to find Ivs-rich spots. Each non-overlapping spot was based on a maximum 8 pixel-radius (when using a 40× objective) around a central intensity peak of 5 pixels. A distance of at least 10 pixels was required between adjacent spot centers. Spot peaks had to exceed thresholds of relative intensity compared to the remaining body of the spot as well as to the entire image. The average, maximum and total RFP intensity of each spot were measured. The spots with sufficiently high absolute maxima to pass the selected threshold were classified as positive spots. To form candidate cilia, the inventors selected the brightest 15% of the pixels in each positive spot and merged those pixels into objects so that the brightest parts of adjacent spots could form single, larger cilia-shaped objects. To qualify the candidate cilia as true Ivs-positive cilia, the width of the objects created from merging the brightest pixels in each spot had to be at least 2 pixels and the length to half-width ratio had to exceed 3. (i.e. a 3-pixel long by 2-pixel wide cilium was the minimum accepted cilium size and the length had to be at least 1.5 fold of the width). The mean GFP intensity within these Ivs-positive cilia was used to estimate the ciliary level of Smo protein. The inventors subtracted the background of the mean GFP intensity in the 3-pixel wide area around each candidate cilium to avoid some false positives. Those Ivs-positive cilia that exceed the final mean GFP intensity threshold set for each experiment were deemed Smo-positive cilia.
Hoechst staining was used to determine the total number of nuclei per well.
Measurements of the geometry of the cilia as well as the total fluorescent intensities of each cilium in the Smo- and Ivs-channels were used to determine if any of the compounds were having unusual effects on cilia size, intensity or frequency of observation or combinations of all three characteristics.

Smo::GFP = Smo::GFP (Homo sapiens, UniProt Q99835); experiment: Ciliary accumulation of Smo::GFP upon overexpression (3T3/Smo::GFP Overexpression/Ivs::tagRFPT); details: stimulus none, read-out: IC50, inhibiton of ciliary accumulation of Smo::GFP upon overexpression
Chain of Smo::GFP (Q99835 28-787): as above
Smo::EGFP [2] = target: T1, Smo::EGFP; experiment: Cyc-induced Smo ciliary accumulation (Smo::EGFP/Ivs::tagRFPT cells); details: 5 μM Cyc
Experimental: as §1, §2

Hh pathway activity = experiment: Gli-luciferase reporter assay, Hh pathway activation by compound alone (NIH/3T3 cells)
Experimental: ShhLightII cells and SmoM2/LightII cells were cultured and treated in 96 well assay plates (Corning) and incubated with Duo-Glo luciferase substrates (Promega) to sequentially measure firefly and renilla luciferase activity. Smo, or GFP, expression plasmids were co-transfected into 3T3 cells together with a Gli-responsive firefly reporter and a TK-renilla luciferase reporter contruct to monitor effects of Smo overexpression. Co-transfection of the two reporter constructs was conducted in assays measuring Hh pathway activity in suFU−/− cells. Wnt activity was measured following co-transfection of a Top-flash and renilla luciferase reporter. In both Hh and Wnt activity assays, renilla luciferase reporter activity, or mass of protein, was used to normalize expression values. Luciferase signal was read by TopCount NX Microplate Scintillation and Luminescence Counter (Perkin Elmer). Quantitative PCR probes for Ptch1, Gli1, and β-actin were purchased from Applied Biosystems. Reactions and measurements were performed using on an Applied Biosystems 7900HT at Harvard FAS Center of System Biology. β-actin was used to normalize Ptch1 and Gil1 values.

primary cilium (PC) = experiment: Primary cilium markers in the high content assay (Ivs::tagRFPT, Arl13b, acetylated tubulin); details: Ivs::tagRFPT and other PC markers
Text: as §2
as §3, with “cilia. […]” for “cilia.”
Cells were cultured and treated in 384-well imaging plate precoated with poly-D-Lysine (Greiner Bio-one), fixed with 4% paraformaldehyde (Electron Microscopy Sciences), and stained with Hoechst (Invitrogen). […] Acapella 2.0 software (Evotec Technologies/PerkinElmer) was used to perform multi-parametric image quantification. All the comparative images were scanned with identical microscopic setting and analyzed with the same input parameters.

IC50 (Smo::EGFP [1]) [nM] | IC50 (Smo::GFP) [nM] | effect on Cyc induced Smo cilial accumulation (Smo::EGFP [2]) | EC50 (Hh pathway activity; Mus musculus, NIH3T3, Gli-luciferase reporter, compound alone, read-out: EC50 for weak transcriptional activation) [nM] | SMILES | Hh pathway activation in transcription reporter assay (Hh pathway activity; FA 10 μM) | transcriptional response in Gli-luciferase reporter assay (Hh pathway activity; FA >50 μM) [fold] | effect on primary cilium markers / ciliary structure (primary cilium (PC))
800 | 80 | effectively compete with Cyc |  | CCN(CC)c1ccc(/C=N/NC(=O)c2ccc(O)cc2)cc1 [DY131] |  |  | 
 |  |  | > 50000 | CC1(C)O[C@@H]2C[C@H]3[C@@H]4C[C@H](F)C5=CC(=O)C=C[C@]5(C)[C@@]4(F)[C@@H](O)C[C@]3(C)[C@]2(C(=O)CO)O1 [FA, fluocinolone acetonide] | no pathway activation was observed | 4 | unaltered
